Measured values reported in US8906909B2 (Curis, Inc., priority 2009, dated 2014).

Legend:
[1] = test system: HDACs (HeLa cell nuclear extracts); assay: HDAC enzymatic activity, Biomol Color de Lys system; type: biochemical
In short: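 IC50 from sigmoidal dose-response fits of fluorescence (Ex 350–380, Em 440–460 nm). Compounds in DMSO dilution series incubated 1 h at 25 °C with HeLa nuclear extract HDACs and colorimetric substrate, pH 8.0 Tris/Cl buffer with NaCl, KCl, MgCl2, before developer termination.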

| Compound | melting point | IC50 [1] |
| --- | --- | --- |
| CN(CCCC(=O)NO)Cc1cc2nc(-c3cccc4[nH]ncc34)nc(N3CCOCC3)c2s1 [Compound 101, 4-(((2-(1H-indazol-4-yl)-4-morpholinothieno[3,2-d]pyrimidin-6-yl)methyl)(methyl)amino)-N-hydroxybutanamide] | 115 to 118 °C | > 10000 nM |
| CN(CCCCC(=O)NO)Cc1cc2nc(-c3cccc4[nH]ncc34)nc(N3CCOCC3)c2s1 [Compound 102, 5-(((2-(1H-indazol-4-yl)-4-morpholinothieno[3,2-d]pyrimidin-6-yl)methyl)(methyl)amino)-N-hydroxypentanamide] | 120 to 122 °C | 100 to 1000 nM |
| CN(CCCCCC(=O)NO)Cc1cc2nc(-c3cccc4[nH]ncc34)nc(N3CCOCC3)c2s1 [Compound 103, 6-(((2-(1H-indazol-4-yl)-4-morpholinothieno[3,2-d]pyrimidin-6-yl)methyl)(methyl)amino)-N-hydroxyhexanamide] | 115 to 118 °C | < 100 nM |
| CN(CCCCCCC(=O)NO)Cc1cc2nc(-c3cccc4[nH]ncc34)nc(N3CCOCC3)c2s1 [Compound 104, 7-(((2-(1H-indazol-4-yl)-4-morpholinothieno[3,2-d]pyrimidin-6-yl)methyl)(methyl)amino)-N-hydroxyheptanamide] | 131 to 133 °C | 100 to 1000 nM |
| CC(=O)Nc1cccc(-c2nc(N3CCOCC3)c3sc(CN(C)c4ncc(C(=O)NO)cn4)cc3n2)c1 [Compound 107, 2-(((2-(3-acetamidophenyl)-4-morpholinothieno[3,2-d]pyrimidin-6-yl)methyl)(methyl)amino)-N-hydroxypyrimidine-5-carboxamide] | 183 to 185 °C | < 100 nM |
| CN(C)c1ccc(-c2nc(N3CCOCC3)c3sc(CN(C)c4ncc(C(=O)NO)cn4)cc3n2)cn1 [Compound 114, 2-(((2-(6-(dimethylamino)pyridin-3-yl)-4-morpholinothieno[3,2-d]pyrimidin-6-yl)methyl)(methyl)amino)-N-hydroxypyrimidine-5-carboxamide] | 190 to 195 °C | < 100 nM |
| CN(Cc1cc2nc(-c3cncnc3)nc(N3CCOCC3)c2s1)c1ncc(C(=O)NO)cn1 [Compound 119, N-hydroxy-2-(methyl((4-morpholino-2-(pyrimidin-5-yl)thieno[3,2-d]pyrimidin-6-yl)methyl)amino)pyrimidine-5-carboxamide] | 159 to 160 °C | < 100 nM |
| CN(Cc1cc2nc(-c3cnc(CN)nc3)nc(N3CCOCC3)c2s1)c1ncc(C(=O)NO)cn1 [Compound 124, 2-(((2-(2-(aminomethyl)pyrimidin-5-yl)-4-morpholinothieno[3,2-d]pyrimidin-6-yl)methyl)(methyl)amino)-N-hydroxypyrimidine-5-carboxamide] | > 300 °C | < 100 nM |
| COc1cccc(-c2nc(N3CCOCC3)c3sc(CN(C)c4ncc(C(=O)NO)cn4)cc3n2)c1 [Compound 130, N-hydroxy-2-(((2-(3-methoxyphenyl)-4-morpholinothieno[3,2-d]pyrimidin-6-yl)methyl)(methyl)amino)pyrimidine-5-carboxamide] | 179 to 181 °C | < 100 nM |
| CN(Cc1cc2nc(-c3ccc(O)cc3)nc(N3CCOCC3)c2s1)c1ncc(C(=O)NO)cn1 [Compound 133, N-hydroxy-2-(((2-(4-hydroxyphenyl)-4-morpholinothieno[3,2-d]pyrimidin-6-yl)methyl)(methyl)amino)pyrimidine-5-carboxamide] | 185 to 195 °C | < 100 nM |
| CN(Cc1cc2nc(-c3ccc(CN)cc3)nc(N3CCOCC3)c2s1)c1ncc(C(=O)NO)cn1 [Compound 135, 2-(((2-(4-(aminomethyl)phenyl)-4-morpholinothieno[3,2-d]pyrimidin-6-yl)methyl)(methyl)amino)-N-hydroxypyrimidine-5-carboxamide] | 184 to 186 °C | < 100 nM |
| CN(Cc1cc2nc(-c3cccc(CN)c3)nc(N3CCOCC3)c2s1)c1ncc(C(=O)NO)cn1 [Compound 137, 2-(((2-(3-(aminomethyl)phenyl)-4-morpholinothieno[3,2-d]pyrimidin-6-yl)methyl)(methyl)amino)-N-hydroxypyrimidine-5-carboxamide] | 173 to 176 °C | < 100 nM |
| CN(Cc1cc2nc(-c3ccc(C(N)=O)cc3)nc(N3CCOCC3)c2s1)c1ncc(C(=O)NO)cn1 [Compound 143, 2-(((2-(4-carbamoylphenyl)-4-morpholinothieno[3,2-d]pyrimidin-6-yl)methyl)(methyl)amino)-N-hydroxypyrimidine-5-carboxamide] | 200 to 202 °C | < 100 nM |
| CNC(=O)c1cccc(-c2nc(N3CCOCC3)c3sc(CN(C)c4ncc(C(=O)NO)cn4)cc3n2)c1 [Compound 144, N-hydroxy-2-(methyl((2-(3-(methylcarbamoyl)phenyl)-4-morpholinothieno[3,2-d]pyrimidin-6-yl)methyl)amino)pyrimidine-5-carboxamide] | 215 to 217 °C | < 100 nM |
| CN(Cc1cc2nc(-c3ccc(C#N)cc3)nc(N3CCOCC3)c2s1)c1ncc(C(=O)NO)cn1 [Compound 146, 2-(((2-(4-cyanophenyl)-4-morpholinothieno[3,2-d]pyrimidin-6-yl)methyl)(methyl)amino)-N-hydroxypyrimidine-5-carboxamide] | 214 to 216 °C | < 100 nM |
| CN(Cc1cc2nc(-c3ccc(Cl)cc3)nc(N3CCOCC3)c2s1)c1ncc(C(=O)NO)cn1 [Compound 147, 2-(((2-(4-chlorophenyl)-4-morpholinothieno[3,2-d]pyrimidin-6-yl)methyl)(methyl)amino)-N-hydroxypyrimidine-5-carboxamide] | 153 °C | < 100 nM |
| CC(C)c1ccc(-c2nc(N3CCOCC3)c3sc(CN(C)c4ncc(C(=O)NO)cn4)cc3n2)cc1 [Compound 148, N-hydroxy-2-(((2-(4-isopropylphenyl)-4-morpholinothieno[3,2-d]pyrimidin-6-yl)methyl)(methyl)amino)pyrimidine-5-carboxamide] | 155 °C (dec.) | < 100 nM |
| CN(Cc1cc2nc(-c3ccc(S(C)(=O)=O)cc3)nc(N3CCOCC3)c2s1)c1ncc(C(=O)NO)cn1 [Compound 149, N-hydroxy-2-(methyl((2-(4-(methylsulfonyl)phenyl)-4-morpholinothieno[3,2-d]pyrimidin-6-yl)methyl)amino)pyrimidine-5-carboxamide] | 206 to 208 °C | < 100 nM |

More lines, now with the values ahead:

| melting point | IC50 [1] | Compound |
| --- | --- | --- |
| 172 to 175 °C | < 100 nM | CN(C)c1cccc(-c2nc(N3CCOCC3)c3sc(CN(C)c4ncc(C(=O)NO)cn4)cc3n2)c1 [Compound 108, 2-(((2-(3-(dimethylamino)phenyl)-4-morpholinothieno[3,2-d]pyrimidin-6-yl)methyl)(methyl)amino)-N-hydroxypyrimidine-5-carboxamide] |
| 197 to 201 °C | < 100 nM | CC(=O)Nc1ccc(-c2nc(N3CCOCC3)c3sc(CN(C)c4ncc(C(=O)NO)cn4)cc3n2)cn1 [Compound 112, 2-(((2-(6-acetamidopyridin-3-yl)-4-morpholinothieno[3,2-d]pyrimidin-6-yl)methyl)(methyl)amino)-N-hydroxypyrimidine-5-carboxamide] |
| 153 to 156 °C | < 100 nM | CCc1ncc(-c2nc(N3CCOCC3)c3sc(CN(C)c4ncc(C(=O)NO)cn4)cc3n2)cn1 [Compound 121, 2-(((2-(2-ethylpyrimidin-5-yl)-4-morpholinothieno[3,2-d]pyrimidin-6-yl)methyl)(methyl)amino)-N-hydroxypyrimidine-5-carboxamide] |
| 199 to 200 °C | < 100 nM | CN(Cc1cc2nc(-c3ccccc3)nc(N3CCOCC3)c2s1)c1ncc(C(=O)NO)cn1 [Compound 129, N-hydroxy-2-(methyl((4-morpholino-2-phenylthieno[3,2-d]pyrimidin-6-yl)methyl)amino)pyrimidine-5-carboxamide] |
| 179 to 182 °C | < 100 nM | CN(Cc1cc2nc(-c3cccc(N)c3)nc(N3CCOCC3)c2s1)c1ncc(C(=O)NO)cn1 [Compound 134, 2-(((2-(3-aminophenyl)-4-morpholinothieno[3,2-d]pyrimidin-6-yl)methyl)(methyl)amino)-N-hydroxypyrimidine-5-carboxamide] |
| 178 to 181 °C | < 100 nM | COCc1cccc(-c2nc(N3CCOCC3)c3sc(CN(C)c4ncc(C(=O)NO)cn4)cc3n2)c1 [Compound 139, N-hydroxy-2-(((2-(3-(methoxymethyl)phenyl)-4-morpholinothieno[3,2-d]pyrimidin-6-yl)methyl)(methyl)amino)pyrimidine-5-carboxamide] |
| 218 to 223 °C | < 100 nM | CN(Cc1cc2nc(-c3ccc(CO)cc3)nc(N3CCOCC3)c2s1)c1ncc(C(=O)NO)cn1 [Compound 140, N-hydroxy-2-(((2-(4-(hydroxymethyl)phenyl)-4-morpholinothieno[3,2-d]pyrimidin-6-yl)methyl)(methyl)amino)pyrimidine-5-carboxamide] |
| 173 to 176 °C | < 100 nM | CN(Cc1cc2nc(-c3ccccc3CO)nc(N3CCOCC3)c2s1)c1ncc(C(=O)NO)cn1 [Compound 141, N-hydroxy-2-(((2-(2-(hydroxymethyl)phenyl)-4-morpholinothieno[3,2-d]pyrimidin-6-yl)methyl)(methyl)amino)pyrimidine-5-carboxamide] |
| 218 to 220 °C | < 100 nM | CNc1ccc(-c2nc(N3CCOCC3)c3sc(CN(C)c4ncc(C(=O)NO)cn4)cc3n2)cc1 [Compound 151, N-hydroxy-2-(methyl((2-(4-(methylamino)phenyl)-4-morpholinothieno[3,2-d]pyrimidin-6-yl)methyl)amino)pyrimidine-5-carboxamide] |
